Patent US20110105436A1, “HETEROARYL COMPOUNDS, COMPOSITIONS, AND METHODS OF USE IN CANCER TREATMENT” (AUCKLAND UNISERVICES LIMITED, priority 2008, published 2011)

How the values were obtained:
Type in all cases: cell-based
LC3 = LC3 processing by Western blot and immunostaining; conditions: for effect of inhibitor on vacuole formation and LC3-II induced by STF-62247: co-treatment with 1.25 μM STF-62247, 20 hrs, VHL-deficient RCC cells; for toxicity, vacuole formation and LC3-lipidated form (autophagy) of analogs: 1.25 μM, 20 hours, FIG. 5A-B
Protocol: (§1) Western blot analysis. After treatments, cells were lysed in urea buffer (9M urea, 75 mM Tris (pH 7.5), 150 mM b-mercaptoethanol), placed on ice for 10 minutes and sonicated briefly (15 seconds). Extracts were centrifugated at 8,000×g for 10 minutes to eliminate insoluble material. Lysates were quantitated using Bio-Rad protein Assay (Bio-Rad Laboratories) and 20-30 μg of proteins were separated on a 7.5% or 15% bis-acrylamide gels and then transferred onto PVDF membranes. Proteins were visualized using HIF-2α (Novus Biological), HIF-1α, pVHL and BiP (BD Biosciences), LC3 (MBL), Atg5, or α-tubulin antibodies.
Immunofluorescence staining. Cells were seeded on glass coverslips and at subconfluence, STF-62247 was added at 1.25 μM for RCC4 and 3.75 μM for SN12C. After 20 hours, cells were fixed in 3.7% formaldehyde for 10 min at room temperature and washed in PBS. Then cells were permeabilized in 0.2% Triton X-100 for 5 min at room temperature and washed in PBS. The coverslips were incubated with primary antibody LC3 diluted 1:500 in PBS containing 0.2% BSA for 1 hour at room temperature. Cells were washed three times in PBS-BSA and the bound primary antibody was detected using a fluorescein-conjugated secondary antibody (ALEXA) diluted 1:500 in PBS-BSA and incubated for 1 hour. Coverslips were washed and mounted in mounting medium from Vector Laboratories according to the manufacturer's instructions. Cells were examined with a confocal microscope
A. Phase contrast pictures of VHL-deficient RCC4 and SN12C-VHL shRNA cells and VHL-positive cells RCC4 and SN12C after 20 hrs of 1.25 μM STF-62247. B. Immunostaining for LC3 following STF-62247 treatment at 1.25 μM for 20 hrs with or without 2 mM of 3-MA in RCC4 with and without VHL cells. After treatment, cells were fixed, permeabilized and processed for the detection of punctuate staining by indirect immunofluorescence. C. Autophagic vacuoles stained with monodansylcadaverine (MDC). After STF-62247 treatment in the same conditions, MDC was added for the last 10 minutes. Cells were fixed, washed with PBS and observed directly under microscope. D. Western blot for LC3 in RCC4, RCC4/VHL, SN12C, and SN12C-VHL shRNA cells after STF-62247 treatment with or without 3-MA. Nutrient starvation (EBSS) is used as positive control. E. Western blot for LC3 in RCC4 and RCC4/VHL with different concentrations of STF-62247. Tubulin was used as loading control. F. Cell viability assay in VHL-deficient RCC4 and wild-type VHL cells treated with 1 mM of 3-MA, 1.25 μM of STF-62247 alone or in combination for 24 hrs. Viability is measured by trypan blue exclusion assay and is represented by the average of three different experiments in duplicate as the percent of treated on untreated cells. The error bars are represented as SEM.
(§2) A. VHL-deficient RCC4 and wild-type VHL were incubated in presence of 10 μM LY294002, or 1 μg/mlBrefeldin A with 1.25 μM of STF-62247 for 20 hrs and the presence of vacuoles was examined under light microscopy. B,C. LC3 processing was evaluated by Western blot after the treatment with Brefeldin A or LY294002 in presence or absence of STF-62247 as described above. Tubulin was used as loading control. D. Cells were treated with 1.25 μM of STF-62247 with or without 2 mM of 3-MA, 1 μg/ml of Brefeldin A for 20 hrs. For the last 15 min, acidic components were stained with 1 μg/ml of acridine orange and visualized under fluorescence microscope. […] F. Quantification of the FACS analysis. The data are calculated as the average of three different experiments as relative units of treated over untreated cells. The error bars are represented as the standard error of the mean (SEM).
B,C. LC3 processing was evaluated by Western blot after the treatment with U0126 or tunicamycin in presence or absence of STF-62247 as described above. Tubulin was used as loading control.

[1] = system: RCC4, RCC4/VHL, SN12C and SN12C-VHL shRNA cells; experiment: Acidic vesicle organelles with acridine orange (FACS); conditions: for effect of inhibitor on autolysosomal acidification induced by STF-62247: 2 mM 3-MA or 1 μg/ml Brefeldin A with 1.25 μM STF-62247, 20 hrs; for acridine orange staining / amount of AVOs: 1.25 μM, VHL-deficient versus wild-type VHL cells
Protocol: Quantification of Acidic Vesicle Organelles with Acridine Orange. In acridine orange-stained cells, the cytoplasm and nucleus are bright green and dim red, whereas acidic compartments are bright red. The intensity of the red fluorescence is proportional to the degree of acidity. Following 20 hours of treatment with STF-62247 or analogs, cells were stained with 1 μg/ml of acridine orange for 15 min. Cells were trypsinized and then analyzed by flow cytometry using FACScan cytometer and CellQuest software.
as §2
A. RCC4 and RCC4/VHL were treated with 1.25 μM of each 19 analogs for 20 hours and the presence of vacuoles was examined under light microscopy. B. Western blot for LC3 after treatment with each compound. Tubulin was used as loading control. Ratio is the relative from the IC50 in RCC4/VHL cells/IC50 in RCC4 cells. C. Acidic vesicle organelles (AVO) measured by FACS analysis in cells treated with 1.25 μM of STF-62247 or with compounds 21, 15, 25, 47, and 53 and stained with acridine orange.

RCC4 cells = experiment: XTT assay in VHL-deficient RCC4 cells; conditions: Homo sapiens, 96 h; Table 1; XTT assay, VHL-deficient RCC4 cells, four days
How it was run: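 RCC4 cells with and without VHL seeded at 5000/well, then exposed next day to serially diluted compound (DMSO vehicle) for four days. Viability read by XTT (0.3 mg/ml) with PMS, 1-2 h at 37° C, absorbance at 450 nm.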

RCC4/VHL cells = experiment: XTT assay, RCC4/VHL versus RCC4 cells (selectivity ratio); conditions: for Ratio: Table 1, selectivity ratio, IC50 in RCC4/VHL cells/IC50 in RCC4 cells
How it was run: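 RCC4 cells with or without VHL (5000/well) exposed to serially diluted compounds for four days. Viability read as XTT metabolism (0.3 mg/ml XTT plus PMS, 1-2 h, 37 °C) at 450 nm. Ratio is IC50 in RCC4/VHL over IC50 in RCC4.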

[2] = system: VHL-deficient RCC4 and wild-type VHL cells; experiment: Cell viability by trypan blue exclusion; conditions: 1 mM 3-MA, 1.25 μM STF-62247, 24 hours, FIG. 2F
Protocol: Cell Viability and XTT assays. For cell viability, 100,000 cells were plated in a 12-well plate. The following day, 1.25 μM STF-62247 was added in the presence or absence of 1 mM 3-MA for 24 hours at 37° C. Cells were trypsinized and counted by trypan blue exclusion. For XTT assays, 5000 RCC4 with and without VHL cells or 2,500 SN12C with and without VHL shRNA cells were plated in 96-well plates. The following day, vehicle (DMSO), STF-62247 or each of 19 analogs were added to media by serial dilution. Four days later, the media was aspirated and XTT solution containing 0.3 mg/ml of XTT (Sigma Chemical Co) in Phenol Red-free media, 20% FCS and 2.65 mg/ml N-methyl dibenzopyrazine methyl sulfate (PMS) was added to the cells and incubated at 37° C. for 1-2 hours. Metabolism of XTT was quantified by measuring the absorbance at 450 nm on a plate reader.
A. Phase contrast pictures of VHL-deficient RCC4 and SN12C-VHL shRNA cells and VHL-positive cells RCC4 and SN12C after 20 hrs of 1.25 μM STF-62247. B. Immunostaining for LC3 following STF-62247 treatment at 1.25 μM for 20 hrs with or without 2 mM of 3-MA in RCC4 with and without VHL cells. […] Viability is measured by trypan blue exclusion assay and is represented by the average of three different experiments in duplicate as the percent of treated on untreated cells. […]

BiP (Grp78) = experiment: Western blot for BiP (ER stress); conditions: 2 μg/ml tunicamycin, FIG. 9C
Protocol: as §1
B,C. LC3 processing was evaluated by Western blot after the treatment with U0126 or tunicamycin in presence or absence of STF-62247 as described above. Tubulin was used as loading control. D. FACS analysis to measure the acidic vesicle organelles after staining with acridine orange in SN12C and SN12C-VHL shRNA following treatment with STF-62247 for 24 hours. E. AVO quantification from the FACS analysis in A. F. Autophagic vacuoles stained with MDC. After STF-62247 treatment with or without 3-MA, NH4Cl, MDC was added the last 10 minutes. Then, cells were fixed, washed with PBS and observed directly under microscope.

Row | Compound | effect of inhibitor on vacuole formation and LC3-II induced by STF-62247 (LC3) | effect of inhibitor on autolysosomal acidification induced by STF-62247 [1] | toxicity, vacuole formation and LC3-lipidated form (autophagy) of analogs (LC3) | acridine orange staining / amount of AVOs [1] | IC50 (RCC4 cells) [µM] | Ratio (RCC4/VHL cells) | IC50 ratio (wild-type VHL/VHL-deficient cells) (RCC4/VHL cells; structure-activity text on Tables 1 and 2) | viability of VHL-deficient cells treated with STF-62247 in presence of inhibitor [2] | BiP (Grp78), marker of ER stress (BiP (Grp78))
1 | C[C@H]1CCC/C=C/[C@@H]2C[C@H](O)C[C@H]2[C@H](O)/C=C/C(=O)O1 [Brefeldin A, reference compound] | abolished the formation of autophagic vacuoles and LC3-II | resulted in a decrease in autolysosomal acidification | – | – | – | – | – | – | –
2 | COc1cccc(Nc2nc(-c3ccncc3)cs2)c1 [Compound 15, N-(3-Methoxyphenyl)-4-(4-pyridinyl)-1,3-thiazol-2-amine] | – | – | induced significant vacuole formation and the LC3-lipidated form | consistertly higher in VHL-deficient cells | 3 | 17 | – | – | –
3 | Oc1cccc(Nc2nc(-c3ccncc3)cs2)c1 [Compound 13, 3-{[4-(4-Pyridinyl)-1,3-thiazol-2-yl]amino}phenol] | – | – | no toxicity or autophagy were observed | not influenced | 28.5 | >3 | – | – | –
4 | Oc1ccc(Nc2nc(-c3ccncc3)cs2)cc1 [Compound 25, 4-{[4-(4-Pyridinyl)-1,3-thiazol-2-yl]amino}phenol] | – | – | induced significant vacuole formation and the LC3-lipidated form | consistertly higher in VHL-deficient cells | 5.3 | 8 | – | – | –
5 | Cc1ccc(Nc2nc(-c3ccncc3)cs2)cc1 [Compound 21, N-(4-Methylphenyl)-4-(4-pyridinyl)-1,3-thiazol-2-amine] | – | – | induced significant vacuole formation and the LC3-lipidated form | consistertly higher in VHL-deficient cells | 2.5 | 20 | high ratio | – | –
6 | Cn1cnc(N)c2ncnc1-2 [Compound 3-MA, 3-methyladenine, reference compound] | abrogated | resulted in a decrease in autolysosomal acidification | – | – | – | – | – | partially restored | –
7 | Cc1cc(Nc2nc(-c3ccncc3)cs2)ccc1O [Compound 53, 2-Methyl-4-{[4-(4-pyridinyl)-1,3-thiazol-2-yl]amino}phenol] | – | – | no toxicity or autophagy were observed | not influenced | 70 | 2.3 | – | – | –
8 | tunicamycin [reference compound] | no vacuole or LC3 processing was observed | – | – | – | – | – | – | – | induced BiP (Grp78)
